Assay [1] concerns the target T1, human 5-HT7(a) receptors (Homo sapiens, UniProt P34969).
T1 construct: expressed in transfected cells
Briefly: Radioligand binding assay with [3H]5-CT, membranes of HEK293 cells stably expressing human 5-HT7(a) receptors. As to conditions: 5-HT7 ligands, values are pKd ± half-range, read-out: Binding affinity (pKd value) (pKd ± SEM) (converted). On the procedure:
(§1) Binding assays were performed in 96-well, round-bottom microtiter plates with total reaction volumes of 50-200 μl, containing the indicated concentration of [^3H]GR113808 with or without competing unlabelled ligand in a binding buffer containing 50 mM Tris-HCl (pH 7.5 at RT), 1 mM EDTA, 5 mM EGTA, 2 mM MgCl2, 1 mM ascorbate, 0.1% BSA and 100 μM GTP. The plates were incubated at 23° C. for 60 min and harvested onto UniFilter™-96 GF/C™ (Packard Instrument Co., Meriden, Conn., USA), presoaked in 0.3% polyethyleneimine (Sigma), using a Packard FilterMate Universal Harvester with 96-well format, and washed 4-6 times with approximately 0.25 ml/well of ice-cold buffer, containing 50 mM Tris-HCl (pH 7.0 at RT) and 2 mM MgCl2. The filters were dried and counted at approximately 40% efficiency in a Top-Count liquid scintillation counter (Packard), using 20 μl per filter well of Micro-Scint liquid scintillation cocktail (Packard).
The same materials and methods described in example 83 were used for the biological testing of hydrophilic 5-HT7 and 5-HT2A ligands. Membrane preparations of HEK293 cell lines stably expressing human 5-HT7(a) receptors (Krobert et al. 2001), or HEK293 cells transiently transfected with human 5-HT2A receptor were used in the binding assays. 5-Carboxamido [^3H]tryptamine trifluoroacetate ([^3H]5-CT) and [^3H]ketanserin were used as radioligands in binding assays testing 5-HT7 and 5-HT2A ligands, respectively.
[^3H]5-CT (91 Ci/mmol) was from Amersham (Buckinghamshire, England). [^3H]ketanserin (72.2 Ci/mmol) was from Perkin Elmer (Boston, Mass., USA).

The target in assay [2] is T2, human 5-HT2A receptor (Homo sapiens, UniProt P28223).
T2 construct: expressed in transfected cells; host or cells: HEK293, transient transfection
In words: Radioligand binding assay with [3H]ketanserin, membranes of HEK293 cells transiently transfected with human 5-HT2A receptor. As to conditions: 5-HT2A ligands, values are pKd ± half-range, read-out: Binding affinity (pKd value) (pKd ± SEM) (converted). The method, then: as §1
The same materials and methods described in example 83 were used for the biological testing of hydrophilic 5-HT7 and 5-HT2A ligands. Membrane preparations of HEK293 cell lines stably expressing human 5-HT7(a) receptors (Krobert et al. 2001), or HEK293 cells transiently transfected with human 5-HT2A receptor were used in the binding assays. […]

Structures can show the parent of a compound that is named as a salt.

T1 sequence (P34969 1-445 isoform P34969-2): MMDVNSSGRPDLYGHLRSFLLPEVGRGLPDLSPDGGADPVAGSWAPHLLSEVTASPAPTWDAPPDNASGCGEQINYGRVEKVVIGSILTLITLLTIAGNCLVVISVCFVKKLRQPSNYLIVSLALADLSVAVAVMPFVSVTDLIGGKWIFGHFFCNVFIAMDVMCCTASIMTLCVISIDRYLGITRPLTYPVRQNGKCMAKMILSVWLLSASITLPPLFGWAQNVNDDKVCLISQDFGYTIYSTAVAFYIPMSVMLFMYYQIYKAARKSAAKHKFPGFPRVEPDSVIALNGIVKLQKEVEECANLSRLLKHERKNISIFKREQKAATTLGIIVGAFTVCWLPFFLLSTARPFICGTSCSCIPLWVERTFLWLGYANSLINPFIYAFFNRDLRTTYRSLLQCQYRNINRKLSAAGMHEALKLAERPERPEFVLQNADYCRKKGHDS
T2 sequence (P28223 whole entry): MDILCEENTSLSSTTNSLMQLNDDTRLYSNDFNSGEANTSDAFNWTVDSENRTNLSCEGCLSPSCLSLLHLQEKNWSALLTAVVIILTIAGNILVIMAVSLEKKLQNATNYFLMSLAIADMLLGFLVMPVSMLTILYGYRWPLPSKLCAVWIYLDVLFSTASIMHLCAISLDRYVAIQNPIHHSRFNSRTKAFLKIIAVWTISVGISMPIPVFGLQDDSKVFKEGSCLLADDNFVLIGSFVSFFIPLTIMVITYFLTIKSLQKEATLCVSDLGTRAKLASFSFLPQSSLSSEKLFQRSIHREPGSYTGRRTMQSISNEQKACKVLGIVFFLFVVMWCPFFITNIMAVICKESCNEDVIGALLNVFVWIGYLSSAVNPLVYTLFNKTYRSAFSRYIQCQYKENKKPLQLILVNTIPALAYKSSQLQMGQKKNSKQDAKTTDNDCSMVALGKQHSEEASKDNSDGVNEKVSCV

With `COC(=O)c1ccc(CN2CCN(CCCCC34CCCc5cccc(c53)NC4=O)CC2)cc1` (centres unmarked) [Example 75], in assay [1], the Kd is 15.8 µM.

With `COC(=O)c1ccc(CN2CC=C(c3c[nH]c4ccccc34)CC2)cc1` [Example 68], the Kd in assay [1] is 11.5 µM. As to `COC(=O)c1ccc(CN2CCC(NC(=O)C34CC5CC(CC(C5)C3)C4)C2)cc1` (centres unmarked) [Example 72], in assay [2], the Kd is 49 µM. For the molecule `COC(=O)c1ccc(CN2CC=C(c3c[nH]c4ccc(OC)cc34)CC2)cc1` [Example 9], the Kd in assay [1] is 8.51 µM. Regarding `O=C(O)c1ccc(CN2CCN(CCCCC34CCCc5cccc(c53)NC4=O)CC2)cc1` (centres unmarked) [Example 76], the Kd in assay [1] is 135 µM.

Regarding `COc1cc(OC)c(C(=O)CCCCN2CCC3(CC2)NC(=O)NC3=O)cc1NS(=O)(=O)c1ccc(C(F)(F)F)cc1` [RS102221, 8-(5-(2,4-Dimethoxy-5-(4-trifluoromethylphenylsulphonamido)phenyl-5-oxopentyl]-1,3,8-triazaspiro[4.5]decane-2,4-dione hydrochloride, reference compound], the Kd in assay [2] was 4.57 µM. For the molecule `CCOC(=O)CCCN1CC=C(c2c[nH]c3ccccc23)CC1` [Example 70], the Kd in assay [1] is 0.661 µM.

On to `O=C(O)c1ccc(CN2CC=C(c3c[nH]c4ccccc34)CC2)cc1` [Example 69], for which the Kd in assay [1] is 81.3 µM.

The record behind these values is patent US20090029979A1, “5-HTX MODULATORS” (BIO-MEDISINSK INNOVASJON AS, priority 2005, published 2009).
